Laboratory results taken from patent publication US20250179059A1 (The Regents of the University of California, priority 2021, published 2025).
Where two headings read alike, the source gives them in different places.

Experiments:
[1] = target: T1, human BRD4 bromodomain II (Homo sapiens, UniProt O60885); assay: Bromodomain binding assay (AlphaScreen), BRD4 BDII
T1 construct: human BRD4 bromodomain II [based on Genbank NM_058243, residues 349-460]; host or cells: E. coli
How it was run: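 Read-out is AlphaScreen signal (ex 680 nm, em 520-620 nm) from streptavidin donor beads on a biotinylated acetylated histone H4 (aa 1-21) peptide and nickel acceptor beads on the His6-tagged bromodomain. IC50 values come from curve fits of percentage peptide binding against compound concentration.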

[2] = tested on: human SKM-1 acute myeloid leukemia cells; assay: SKM-1 antiproliferation cell-based assay (ATPlite); conditions: Homo sapiens
How it was run: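 Log-phase cells in RPMI 1640/15% FBS were seeded at 34722 cells/mL and exposed for 4 days to nine-concentration DMSO serial dilutions in triplicate. Viability was read as ATP luminescence (ATPlite 1step), and IC50 values came from variable-slope non-linear regression.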

[3] = AlphaScreen assay, Table C2, read-out: BRD4 BDII IC50
[4] = SKM-1, 96 h, SKM-1 antiproliferation assay, 4 days, Table C2
[5] = BRD4 BDII AlphaScreen assay, read-out: BRD4 BD2 IC50
[6] = SKM-1, SKM-1 antiproliferation assay

| IC50 [1, 3] | GI50 [2, 4] | IC50 [1, 5] | GI50 [2, 6] | SMILES |
| --- | --- | --- | --- | --- |
| 10 to 100 nM | 30 to 300 nM |  |  | CC(=O)Nc1ccc(-c2cc(F)cc(-c3ccnc(N4CC5(CNC5)C4)c3)c2O)cc1Cl [Example 298, N-(3′-(2-(2,6-diazaspiro[3.3]heptan-2-yl)pyridin-4-yl)-3-chloro-5′-fluoro-2′-hydroxy-[1,1′-biphenyl]-4-yl)acetamide] |
| 0.01 to 1 nM | 0.3 to 30 nM |  |  | CN1CCN(c2cc(-c3cc(F)cc(-c4ccc(-n5ccn(C)c5=O)c(Cl)c4)c3O)ccn2)CC1 [Example 430, 1-(3-chloro-5′-fluoro-2′-hydroxy-3′-(2-(4-methylpiperazin-1-yl)pyridin-4-yl)-[1,1′-biphenyl]-4-yl)-3-methyl-1H-imidazol-2(3H)-one] |
| 10 to 100 nM | 300 to 3000 nM |  |  | O=C1NCCCN1c1ccc(-c2cccc(-c3ccnc(N4CCNCC4)c3)c2O)cc1Cl [Example 276, 1-(3-chloro-2′-hydroxy-3′-(2-(piperazin-l-yl)pyridin-4-yl)-[1,1′-biphenyl]-4-yl)tetrahydropyrimidin-2(1H)-one] |
| 1 to 10 nM | 0.3 to 30 nM |  |  | Cc1cc(-c2cncc(N3CCN[C@H](C)C3)c2)c(O)c(-c2ccc(-n3ccn(C)c3=O)c(Cl)c2)c1 [Example 508, (R)-1-(3-chloro-2′-hydroxy-5′-methyl-3′-(5-(3-methylpiperazin-1-yl)pyridin-3-yl)-[1,1′-biphenyl]-4-yl)-3-methyl-1H-imidazol-2(3H)-one] |
|  |  | > 100 nM | 300 to 3000 nM | CCc1cc(-c2cc(F)cc(-c3cccc(N4CCN(C(C)(C)C)CC4)c3)c2O)cc(Cl)c1-n1ccn(C)c1=O [Example 929, 1-(3″-(4-(tert-butyl)piperazin-1-yl)-3-chloro-5-ethyl-5′-fluoro-2′-hydroxy-[1,1′:3′,1″-terphenyl]-4-yl)-3-methyl-1H-imidazol-2(3H)-one] |
|  |  | 1 to 10 nM | 0.3 to 30 nM | Cn1ccn(-c2ccc(-c3cc(Cl)cc(-c4cccc(N5CCN(C(C)(C)C)CC5)c4)c3O)cc2Cl)c1=O [Example 1024, 1-(3″-(4-(tert-butyl)piperazin-1-yl)-3,5′-dichloro-2′-hydroxy-[1,1′:3′,1″-terphenyl]-4-yl)-3-methyl-1H-imidazol-2(3H)-one] |
| 0.01 to 1 nM | 0.3 to 30 nM |  |  | CC(C)CN1CCN(c2cc(-c3cc(F)cc(-c4ccc(-n5ccn(C)c5=O)c(Cl)c4)c3O)ccn2)CC1 [Example 682, 1-(3-chloro-5′-fluoro-2′-hydroxy-3′-(2-(4-isobutylpiperazin-1-yl)pyridin-4-yl)-[1,1′-biphenyl]-4-yl)-3-methyl-1H-imidazol-2(3H)-one] |
| 0.01 to 1 nM | 30 to 300 nM |  |  | [2H]C([2H])([2H])N1CCN(c2ccc(-c3cc(F)cc(-c4ccnc(N5CCNCC5)c4)c3O)cc2Cl)C1=O [Example 412, 1-(3-chloro-5′-fluoro-2′-hydroxy-3′-(2-(piperazin-1-yl)pyridin-4-yl)-[1,1′-biphenyl]-4-yl)-^3-deuteromethylimidazolidin-2-one] |
| 1 to 10 nM | 30 to 300 nM |  |  | Cn1ccn(-c2ccc(-c3cc(F)cc(-c4cccc(C5(N)CC5)c4)c3O)cc2Cl)c1=O [Example 803, 1-(3″-(1-aminocyclopropyl)-3-chloro-5′-fluoro-2′-hydroxy-[1,1′:3′,1″-terphenyl]-4-yl)-3-methyl-1H-imidazol-2(3H)-one] |
| 0.01 to 1 nM | 0.3 to 30 nM |  |  | Cn1ccn(-c2ccc(-c3cc(F)cc(-c4ccnc(N5CCN(C[C@@H](O)CO)CC5)c4)c3O)cc2Cl)c1=O [Example 610, (R)-1-(3-chloro-3′-(2-(4-(2,3-dihydroxypropyl)piperazin-1-yl)pyridin-4-yl)-5′-fluoro-2′-hydroxy-[1,1′-biphenyl]-4-yl)-3-methyl-1H-imidazol-2(3H)-one] |
| 10 to 100 nM | 300 to 3000 nM |  |  | CC(=O)Nc1ccc(-c2cccc(-c3ccnc(C#CCCN)c3)c2O)cc1F [Example 304, N-(3′-(2-(4-aminobut-1-yn-1-yl)pyridin-4-yl)-3-fluoro-2′-hydroxy-[1,1′-biphenyl]-4-yl)acetamide] |
| 0.01 to 1 nM | 0.3 to 30 nM |  |  | Cn1ccn(-c2ccc(-c3cc(F)cc(-c4ccnc(N5CCC(C)(N)C5)c4)c3O)cc2Cl)c1=O (stereo not shown) [Example 686, 1-(3′-(2-(3-amino-3-methylpyrrolidin-1-yl)pyridin-4-yl)-3-chloro-5′-fluoro-2′-hydroxy-[1,1′-biphenyl]-4-yl)-3-methyl-1H-imidazol-2(3H)-one] |
| 0.01 to 1 nM | 0.3 to 30 nM |  |  | Cc1ncc(-c2cc(F)cc(-c3ccc(-n4ccn(C)c4=O)c(Cl)c3)c2O)cc1N1CCN(C(C)C)CC1 [Example 722, 1-(3-chloro-5′-fluoro-2′-hydroxy-3′-(5-(4-isopropylpiperazin-1-yl)-6-methylpyridin-3-yl)-[1,1′-biphenyl]-4-yl)-3-methyl-1H-imidazol-2(3H)-one] |
| 0.01 to 1 nM | 0.3 to 30 nM |  |  | Cn1ccn(-c2ccc(-c3cc(F)cc(-c4cncc(N5CCNC(C)(C)C5)c4)c3O)cc2Cl)c1=O [Example 561, 1-(3-chloro-3′-(5-(3,3-dimethylpiperazin-1-yl)pyridin-3-yl)-5′-fluoro-2′-hydroxy-[1,1′-biphenyl]-4-yl)-3-methyl-1H-imidazol-2(3H)-one] |
| 1 to 10 nM | 30 to 300 nM |  |  | CC(=O)Nc1ccc(-c2cccc(-c3ccc(C#N)c(N4CCNCC4)c3)c2O)cc1F [Example 236, N-(4″-cyano-3-fluoro-2′-hydroxy-3″-(piperazin-1-yl)-[1,1′:3′,1″-terphenyl]-4-yl)acetamide] |
| 0.01 to 1 nM | 0.3 to 30 nM |  |  | Cn1ccn(-c2ccc(-c3cc(F)cc(-c4cncc(N5CC[C@](C)(N)C5)c4)c3O)cc2Cl)c1=O [Example 746, (S)-1-(3′-(5-(3-amino-3-methylpyrrolidin-1-yl)pyridin-3-yl)-3-chloro-5′-fluoro-2′-hydroxy-[1,1′-biphenyl]-4-yl)-3-methyl-1H-imidazol-2(3H)-one] |
|  |  | 0.01 to 1 nM | 30 to 300 nM | COc1ncc(-c2cc(F)cc(-c3ccc(-n4ccn(C)c4=O)c(Cl)c3)c2O)cc1N1CC(C)(C)[C@@](C)(O)C1 [Example 872] |
|  |  | 1 to 10 nM | 30 to 300 nM | CC(C)N1CCC[C@]12CCN(c1cccc(-c3cc(F)cc(-c4ccc(-n5ccn(C)c5=O)c(Cl)c4)c3O)c1)C2 [Example 967, (R)-1-(3-chloro-5′-fluoro-2′-hydroxy-3″-(1-isopropyl-1,7-diazaspiro[4.4]nonan-7-yl)-[1,1′:3′,1″-terphenyl]-4-yl)-3-methyl-1,3-dihydro-2H-imidazol-2-one] |
| 1 to 10 nM | 30 to 300 nM |  |  | Cc1ccc(-c2cc(F)cc(-c3ccc(-n4ccn(C)c4=O)c(Cl)c3)c2O)cc1N1CC(O)(CO)C1 [Example 841, 1-(3-chloro-5′-fluoro-2′-hydroxy-3″-(3-hydroxy-3-(hydroxymethyl)azetidin-1-yl)-4″-methyl-[1,1′:3′,1″-terphenyl]-4-yl)-3-methyl-1H-imidazol-2(3H)-one] |
| 1 to 10 nM | 30 to 300 nM |  |  | Cn1ccn(-c2ccc(-c3cc(F)cc(-c4ccnc(N5CC6CC6(O)C5)c4)c3O)cc2Cl)c1=O (stereo not shown) [Example 770, 1-(3-chloro-5′-fluoro-2′-hydroxy-3′-(2-(1-hydroxy-3-azabicylco[3.1.0]hexan-3-yl)pyridin-4-yl)-[1,1′-biphenyl]-4-yl)-3-methyl-1H-imidazol-2(3H)-one] |
| 1 to 10 nM | 0.3 to 30 nM |  |  | Cn1cc(-c2cc(F)cc(-c3ccc(-n4ccn(C)c4=O)c(Cl)c3)c2O)cc(N2CCC(C)(N)C2)c1=O (stereo not shown) [Example 723, 3-(3-amino-3-methylpyrrolidin-1-yl)-5-(3′-chloro-5-fluoro-2-hydroxy-4′-(3-methyl-2-oxo-2,3-dihydro-1H-imidazol-1-yl)-[1,1′-biphenyl]-3-yl)-1-methylpyridin-2(1H)-one] |
| 0.01 to 1 nM | 0.3 to 30 nM |  |  | C[C@@H]1CN(c2cc(-c3cc(F)cc(-c4ccc(-n5ccn(C)c5=O)c(Cl)c4)c3O)cc3cccnc23)CCN1 [Example 591, (R)-1-(3-chloro-5′-fluoro-2′-hydroxy-3′-(8-(3-methylpiperazin-1-yl)quinolin-6-yl)-[1,1′-biphenyl]-4-yl)-3-methyl-1H-imidazol-2(3H)-one] |
|  |  | 1 to 10 nM | 0.3 to 30 nM | Cc1cc(-c2ccc(-n3ccn(C)c3=O)c(Cl)c2)c(O)c(-c2cccc(N3CCC4(CCCN4C(C)C)C3)c2)n1 (stereo not shown) [Example 981, 1-(2-chloro-4-(3-hydroxy-2-(3-(1-isopropyl-1,7-diazaspiro[4.4]nonan-7-yl)phenyl)-6-methylpyridin-4-yl)phenyl)-3-methyl-1H-imidazol-2(3H)-one] |
| 0.01 to 1 nM | 30 to 300 nM |  |  | Cn1ccn(-c2ccc(-c3cc(F)cc(-c4ccnc(N5CCNCC5=O)c4)c3O)cc2Cl)c1=O [Example 463, 1-(4-(3′-chloro-5-fluoro-2-hydroxy-4′-(3-methyl-2-oxo-2,3-dihydro-1H-imidazol-1-yl)-[1,1′-biphenyl]-3-yl)pyridin-2-yl)piperazin-2-one] |
| 0.01 to 1 nM | 0.3 to 30 nM |  |  | CC(C)N1CCN(c2cc(-c3cc(F)cc(-c4ccc(-n5ccn(C)c5=O)c(Cl)c4)c3O)cc3c2cnn3C)CC1 [Example 672, 1-(3-chloro-5′-fluoro-2′-hydroxy-3′-(4-(4-isopropylpiperazin-1-yl)-1-methyl-1H-indazol-6-yl)-[1,1′-biphenyl]-4-yl)-3-methyl-1H-imidazol-2(3H)-one] |
| > 100 nM | 300 to 3000 nM |  |  | CC1(C)CCN(c2ccc(-c3cccc(-c4ccnc(N5CCNCC5)c4)c3O)cc2Cl)C1=O [Example 329, 1-(3-chloro-2′-hydroxy-3′-(2-(piperazin-1-yl)pyridin-4-yl)-[1,1′-biphenyl]-4-yl)-3,3-dimethylpyrrolidin-2-one] |
